Drawing on patent US8318762B2, “Pyrazolospiroketone acetyl-CoA carboxylase inhibitors” (Pfizer Inc., priority 2008, dated 2012), this text covers IC50 for 67 compounds.

T1 sequence (O00763 whole entry): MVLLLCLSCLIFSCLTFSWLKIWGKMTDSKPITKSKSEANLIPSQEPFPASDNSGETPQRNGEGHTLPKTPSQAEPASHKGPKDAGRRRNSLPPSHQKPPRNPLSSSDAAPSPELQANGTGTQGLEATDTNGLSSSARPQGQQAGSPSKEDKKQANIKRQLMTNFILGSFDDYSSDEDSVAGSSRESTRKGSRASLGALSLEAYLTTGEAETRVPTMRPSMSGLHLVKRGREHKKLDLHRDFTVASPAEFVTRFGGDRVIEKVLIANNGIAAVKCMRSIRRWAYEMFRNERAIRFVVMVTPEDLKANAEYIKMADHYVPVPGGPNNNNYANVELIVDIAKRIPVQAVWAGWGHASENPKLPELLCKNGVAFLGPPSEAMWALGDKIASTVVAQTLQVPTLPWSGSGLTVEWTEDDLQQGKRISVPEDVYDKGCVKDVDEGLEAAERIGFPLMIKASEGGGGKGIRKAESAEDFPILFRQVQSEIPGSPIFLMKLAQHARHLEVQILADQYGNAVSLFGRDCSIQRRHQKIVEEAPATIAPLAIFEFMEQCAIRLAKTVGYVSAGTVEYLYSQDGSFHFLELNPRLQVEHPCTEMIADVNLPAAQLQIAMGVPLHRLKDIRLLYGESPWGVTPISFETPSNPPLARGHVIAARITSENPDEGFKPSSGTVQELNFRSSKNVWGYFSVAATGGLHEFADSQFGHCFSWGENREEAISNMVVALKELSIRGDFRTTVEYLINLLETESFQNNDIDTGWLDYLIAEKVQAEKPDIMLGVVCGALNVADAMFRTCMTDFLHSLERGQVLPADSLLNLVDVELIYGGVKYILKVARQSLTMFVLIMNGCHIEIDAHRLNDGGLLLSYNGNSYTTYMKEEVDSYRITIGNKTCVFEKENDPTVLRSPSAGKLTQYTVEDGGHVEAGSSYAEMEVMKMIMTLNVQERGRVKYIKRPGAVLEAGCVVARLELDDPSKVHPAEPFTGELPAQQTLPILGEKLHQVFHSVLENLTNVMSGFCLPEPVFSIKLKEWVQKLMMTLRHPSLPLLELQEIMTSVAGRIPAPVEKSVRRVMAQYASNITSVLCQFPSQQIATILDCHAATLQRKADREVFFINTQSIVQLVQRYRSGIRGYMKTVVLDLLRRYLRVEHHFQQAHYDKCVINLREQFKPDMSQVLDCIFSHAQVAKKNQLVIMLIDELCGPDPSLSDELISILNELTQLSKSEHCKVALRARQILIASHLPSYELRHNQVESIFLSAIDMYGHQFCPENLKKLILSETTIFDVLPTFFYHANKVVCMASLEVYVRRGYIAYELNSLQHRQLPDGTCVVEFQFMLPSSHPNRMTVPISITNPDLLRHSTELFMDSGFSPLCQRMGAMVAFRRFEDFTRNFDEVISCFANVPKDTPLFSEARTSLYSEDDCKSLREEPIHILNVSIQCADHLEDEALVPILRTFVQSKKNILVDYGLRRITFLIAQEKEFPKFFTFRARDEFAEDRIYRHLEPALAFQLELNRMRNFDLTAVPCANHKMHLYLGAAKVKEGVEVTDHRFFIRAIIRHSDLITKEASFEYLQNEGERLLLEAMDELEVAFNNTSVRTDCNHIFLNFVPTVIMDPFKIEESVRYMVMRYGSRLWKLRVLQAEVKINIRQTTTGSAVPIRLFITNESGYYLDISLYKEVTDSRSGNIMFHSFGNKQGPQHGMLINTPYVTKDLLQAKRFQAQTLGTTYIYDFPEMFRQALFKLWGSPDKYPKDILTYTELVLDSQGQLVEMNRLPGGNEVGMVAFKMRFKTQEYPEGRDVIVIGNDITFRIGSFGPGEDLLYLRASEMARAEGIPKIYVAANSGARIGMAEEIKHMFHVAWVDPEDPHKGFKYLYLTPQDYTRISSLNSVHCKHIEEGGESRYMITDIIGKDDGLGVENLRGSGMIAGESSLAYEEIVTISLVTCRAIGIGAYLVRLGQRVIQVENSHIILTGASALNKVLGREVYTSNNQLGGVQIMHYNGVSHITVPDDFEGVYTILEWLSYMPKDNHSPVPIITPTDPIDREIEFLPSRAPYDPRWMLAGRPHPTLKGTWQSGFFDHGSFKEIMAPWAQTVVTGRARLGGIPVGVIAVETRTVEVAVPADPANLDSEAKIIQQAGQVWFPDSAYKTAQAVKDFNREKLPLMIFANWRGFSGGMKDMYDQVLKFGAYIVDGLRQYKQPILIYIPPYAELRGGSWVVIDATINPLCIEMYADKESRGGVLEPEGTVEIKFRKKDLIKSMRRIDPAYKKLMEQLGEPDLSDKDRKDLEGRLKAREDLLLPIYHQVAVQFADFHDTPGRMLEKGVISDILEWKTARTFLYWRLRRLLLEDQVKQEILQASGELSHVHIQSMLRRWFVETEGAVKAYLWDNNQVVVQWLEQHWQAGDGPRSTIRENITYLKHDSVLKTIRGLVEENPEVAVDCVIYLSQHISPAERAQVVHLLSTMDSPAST

The first test concerns the target T1, recombinant human ACC2 (Homo sapiens, UniProt O00763).
T1 construct: a full length Cytomax clone of ACC2 was purchased from Cambridge Bioscience Limited; made in house; host or cells: CHO cells (tetracycline induction, pcDNA5 FRT TO-TOPO); purified on a Softlink Soft Release Avidin column
Put plainly: Measurement of human ACC2 inhibition (recombinant hACC2 Transcreener ADP detection FP assay). The class given is biochemical.
Details: not given
As for the experimental part:
[3] Measurement of human ACC2 inhibition. Human ACC2 inhibition was measured using purified recombinant human ACC2 (hrACC2). […] The ACC2 was expressed in CHO cells by tetracycline induction and harvested in 5 liters of DMEM/F12 with glutamine, biotin, hygromycin and blasticidin with 1 μg/mL tetracycline (Invitrogen, Carlsbad, Calif.). The conditioned medium containing ACC2 was then applied to a Softlink Soft Release Avidin column (Promega, Madison, Wis.) and eluted with 5 mM biotin. […] The purified ACC2 was dialyzed in 50 mM Tris, 200 mM NaCl, 4 mM DTT, 2 mM EDTA, and 5% glycerol. […] The final conditions for the assay were 50 mM HEPES, pH7.5, 5 mM MgCl2, 5 mM tripotassium citrate, 2 mM DTT, 0.5 mg/mL BSA, 30 μM acetyl-CoA, 50 μM ATP, and 8 mM KHCO3. Typically, a 10 μl reaction was run for 1 hour at room temperature, and 10 μl of Transcreener stop and detect buffer was added and incubated for an additional 1 hour.
Take `Cc1cc(C(=O)N2CCC3(CC2)CC(=O)c2nn(C)cc2O3)cc2cn[nH]c12` [1.029]: the IC50 came out at 629 nM.

The same test, now with this note: recombinant hACC2 transcreener assay; read-out: rhACC2 IC50.
For `Cn1c(O)nc2cc(C(=O)N3CCC4(CC3)CC(=O)c3nn(C(C)(C)C)cc3O4)ccc21` [8.010], the half-maximal inhibitory concentration (IC50) was 18 nM.

Regarding `Cc1n[nH]c2c(Cl)cc(C(=O)N3CCC4(CC3)CC(=O)c3nn(C(C)(C)C)cc3O4)cc12` [1.110], the IC50 is 3 nM.

Regarding `COc1c(C(=O)N2CCC3(CC2)CC(=O)c2nn(C(C)C)cc2O3)ccc2cn[nH]c12` [2.022], the IC50 stood at 47 nM.

Consider `Cn1ncc2cc(C(=O)N3CCC4(CC3)CC(=O)c3nn(C(C)(C)C)cc3O4)ccc21` [1.145], for which the IC50 came to 26 nM.

In the case of `CCn1nc2c(c1C)OC1(CCN(C(=O)c3ccc4ccn(C)c4c3)CC1)CC2=O` [18.002], the IC50 was found to be 33 nM.

Turning to `CCn1c(C)nc2cc(C(=O)N3CCC4(CC3)CC(=O)c3nn(C(C)(C)C)cc3O4)ccc21` [8.008], the 50% inhibitory concentration (IC50) came to 52 nM.

For `CCc1n[nH]c2ccc(C(=O)N3CCC4(CC3)CC(=O)c3nn(C)cc3O4)cc12` [1.095], the half-inhibitory concentration (IC50) amounted to 397 nM.

Regarding `Cc1n[nH]c2c(C)cc(C(=O)N3CCC4(CC3)CC(=O)c3nn(C5CCC5)c(C)c3O4)cc12` [1.126], the IC50 stood at 3 nM.

On to `COc1cc(C(=O)N2CCC3(CC2)CC(=O)c2nn(CC(C)C)c(C)c2O3)cc2cn[nH]c12` [1.131], for which the IC50 was determined as 19 nM.

With `CCn1nc2c(c1C)OC1(CCN(C(=O)c3ccc4c(cnn4C)c3)CC1)CC2=O` [1.112], the concentration for half-maximal inhibition (IC50) was found to be 79 nM.

Consider `COc1cc(C(=O)N2CCC3(CC2)CC(=O)c2nn(C(C)C)c(C)c2O3)cc2c(C)n[nH]c12` [1.078], for which the IC50 was found to be 4 nM.

For the compound `CCc1nn(C)c2c(OC)cc(C(=O)N3CCC4(CC3)CC(=O)c3nn(CC)cc3O4)cc12` [1.099], the half-inhibitory concentration (IC50) was 20 nM.

With `Cc1nc2ccc(C(=O)N3CCC4(CC3)CC(=O)c3nn(C(C)(C)C)cc3O4)cc2n1C` [3.027], the half-inhibitory concentration (IC50) was 42 nM.

Regarding `CC(C)(C)n1cc2c(n1)C(=O)CC1(CCN(C(=O)c3ccc4oncc4c3)CC1)O2` [22.002], the IC50 turned out to be 518 nM.

Take `CCn1nc2c(c1C)OC1(CCN(C(=O)c3cc(OC)c4[nH]nc(C)c4c3)CC1)CC2=O` [1.077]: the 50% inhibitory concentration (IC50) was found to be 15 nM.

Regarding `Cc1cc(C(=O)N2CCC3(CC2)CC(=O)c2nn(C(C)C)cc2O3)cc2c1ncn2C` [3.009], the IC50 was 22 nM.

Regarding `CCn1nc2c(c1C)OC1(CCN(C(=O)c3ccc4c(c3)nc(O)n4C)CC1)CC2=O` [8.011], the 50% inhibitory concentration (IC50) came to 186 nM.

`CCC(C)n1cc2c(n1)C(=O)CC1(CCN(C(=O)c3ccc4[nH]ncc4c3)CC1)O2` (stereo not shown) [1.142]: the IC50 came to 20 nM.

For `CCn1cc2c(n1)C(=O)CC1(CCN(C(=O)c3cc(C)c4[nH]ncc4c3)CC1)O2` [1.025], the IC50 came out at 54 nM.

Consider `CCn1nc2c(c1C)OC1(CCN(C(=O)c3cc(C)c4c(c3)ncn4C)CC1)CC2=O` [8.003], for which the 50% inhibitory concentration (IC50) came out at 87 nM.

Regarding `CCn1nc2c(c1C)OC1(CCN(C(=O)c3cc(F)c4nc(C)[nH]c4c3)CC1)CC2=O` [3.018], the 50% inhibitory concentration (IC50) is 105 nM.

Turning to `Cc1n[nH]c2c(C)cc(C(=O)N3CCC4(CC3)CC(=O)c3nn(CC(C)C)c(C)c3O4)cc12` [1.129], the IC50 came to 5 nM.

On to `Cc1cc(C(=O)N2CCC3(CC2)CC(=O)c2nn(C(C)C)c(C)c2O3)cc2[nH]cnc12` [3.017], for which the IC50 was found to be 14 nM.

On to `CC(C)(C)n1cc2c(n1)C(=O)CC1(CCN(C(=O)c3ccc4c(c3)NC(=O)CO4)CC1)O2` [12.005], for which the half-inhibitory concentration (IC50) amounted to 45 nM.

For the compound `CCc1n[nH]c2c(OC)cc(C(=O)N3CCC4(CC3)CC(=O)c3nn(C5CCCCC5)cc3O4)cc12` [1.048], the IC50 came to 18 nM.

Consider `CC(C)(C)n1cc2c(n1)C(=O)CC1(CCN(C(=O)c3ccc4occc4c3)CC1)O2` [17.001], for which the IC50 is 33 nM.

With `COc1ccc2ccc(C(=O)N3CCC4(CC3)CC(=O)c3nn(C(C)(C)C)cc3O4)cc2c1` [6.003], the IC50 was found to be 2 nM.

In the case of `CCCn1cc2c(n1)C(=O)CC1(CCN(C(=O)c3cc(C)c4[nH]nc(C)c4c3)CC1)O2` [1.004], the half-inhibitory concentration (IC50) came to 20 nM.

With `CCn1nc2c(c1C)OC1(CCN(C(=O)c3ccc4ccc(OC)cc4c3)CC1)CC2=O` [6.001], the IC50 was determined as 13 nM.

For the compound `Cc1nc2cc(C(=O)N3CCC4(CC3)CC(=O)c3nn(C(C)(C)C)cc3O4)ccc2s1` [14.001], the IC50 was found to be 7 nM.

As for `CC(C)(C)n1cc2c(n1)C(=O)CC1(CCN(C(=O)c3ccc4cc[nH]c(=O)c4c3)CC1)O2` [21.001], the IC50 turned out to be 16 nM.

Take `CN1C(=O)CCc2ccc(C(=O)N3CCC4(CC3)CC(=O)c3nn(C(C)(C)C)cc3O4)cc21` [12.003]: the half-inhibitory concentration (IC50) was found to be 52 nM.

With `Cc1n[nH]c2ccc(C(=O)N3CCC4(CC3)CC(=O)c3nn(C(C)C)c(C)c3O4)cc12` [1.091], the concentration for half-maximal inhibition (IC50) turned out to be 15 nM.

Consider `CCn1nc2c(c1C)OC1(CCN(C(=O)c3ccc4c(C)noc4c3)CC1)CC2=O` [23.003], for which the IC50 is 335 nM.

For the compound `CC(C)(C)n1cc2c(n1)C(=O)CC1(CCN(C(=O)c3cc(Cl)c4[nH]ncc4c3)CC1)O2` [1.065], the half-maximal inhibitory concentration (IC50) stood at 8 nM.

Regarding `Cc1c2c(nn1C)C(=O)CC1(CCN(C(=O)c3cc(Cl)c4[nH]ncc4c3)CC1)O2` [1.063], the IC50 amounted to 137 nM.

Consider `Cc1cc(C(=O)N2CCC3(CC2)CC(=O)c2nn(C(C)(C)C)c(C)c2O3)cc2cn[nH]c12` [1.043], for which the IC50 worked out at 43 nM.

Consider `CCn1nc2c(c1C)OC1(CCN(C(=O)c3ccc4oncc4c3)CC1)CC2=O` [22.003], for which the IC50 was over 1000 nM.

As to `CC(C)n1cc2c(n1)C(=O)CC1(CCN(C(=O)c3cc(F)c4cn[nH]c4c3)CC1)O2` [2.015], the IC50 amounted to 136 nM.

As for `CCc1n[nH]c2ccc(C(=O)N3CCC4(CC3)CC(=O)c3nn(CC)cc3O4)cc12` [1.093], the IC50 was 18 nM.

Turning to `Cc1cc(C(=O)N2CCC3(CC2)CC(=O)c2nn(Cc4ccccc4)c(C)c2O3)cc2cn[nH]c12` [1.033], the IC50 was 487 nM.

As to `CCOc1cc(C(=O)N2CCC3(CC2)CC(=O)c2nn(CC)c(C)c2O3)cc2c(CC)n[nH]c12` [1.018], the concentration for half-maximal inhibition (IC50) is 34 nM.

Regarding `CC(C)n1cc2c(n1)C(=O)CC1(CCN(C(=O)c3cc(Cl)c4cn[nH]c4c3)CC1)O2` [2.006], the half-maximal inhibitory concentration (IC50) is 13 nM.

Consider `CCOc1cc(C(=O)N2CCC3(CC2)CC(=O)c2nn(C(C)C)c(C)c2O3)cc2cn[nH]c12` [1.122], for which the IC50 was 5 nM.

`CC(C)(C)n1cc2c(n1)C(=O)CC1(CCN(C(=O)c3ccc4cccnc4c3)CC1)O2` [16.001]: the IC50 amounted to 12 nM.

For `CC(C)(C)n1cc2c(n1)C(=O)CC1(CCN(C(=O)c3ccc4cnoc4c3)CC1)O2` [23.005], the IC50 amounted to 158 nM.

In the case of `CCc1n[nH]c2ccc(C(=O)N3CCC4(CC3)CC(=O)c3nn(C(C)(C)C)cc3O4)cc12` [1.096], the IC50 was 12 nM.

On to `Cc1nc2c(F)cc(C(=O)N3CCC4(CC3)CC(=O)c3nn(C(C)(C)C)cc3O4)cc2[nH]1` [3.019], for which the 50% inhibitory concentration (IC50) was 17 nM.

On to `Cc1n[nH]c2c(C)cc(C(=O)N3CCC4(CC3)CC(=O)c3nn(C5CCOC5)cc3O4)cc12` (stereo not shown) [1.016], for which the half-maximal inhibitory concentration (IC50) amounted to 22 nM.

As for `CCn1cc2c(n1)C(=O)CC1(CCN(C(=O)c3cc(OC)c4[nH]nc(C)c4c3)CC1)O2` [1.079], the IC50 was determined as 12 nM.

With `CC(C)n1cc2c(n1)C(=O)CC1(CCN(C(=O)c3ccc4cn(C)nc4c3)CC1)O2` [5.001], the IC50 is 675 nM.

As to `CCOc1cc(C(=O)N2CCC3(CC2)CC(=O)c2nn(C(C)(C)C)cc2O3)cc2c(C)n[nH]c12` [1.116], the IC50 is 5 nM.

In the case of `Cc1cc(C(=O)N2CCC3(CC2)CC(=O)c2nn(C(C)C)cc2O3)cc2c(Cl)n[nH]c12` [1.104], the IC50 was determined as 4 nM.

Consider `CCn1nc2c(c1C)OC1(CCN(C(=O)c3cc(C)c4sncc4c3)CC1)CC2=O` [7.008], for which the IC50 amounted to 93 nM.

On to `CCc1n[nH]c2c(C)cc(C(=O)N3CCC4(CC3)CC(=O)c3nn(CC)c(C)c3O4)cc12` [1.125], for which the half-maximal inhibitory concentration (IC50) came out at 7 nM.

Consider `Cc1c2c(nn1C)C(=O)CC1(CCN(C(=O)c3ccc4c(cnn4C)c3)CC1)O2` [1.124], for which the IC50 was over 3000 nM.

Turning to `Cc1cc(C(=O)N2CCC3(CC2)CC(=O)c2nn(C4CCCCC4)cc2O3)cc2cn[nH]c12` [1.037], the concentration for half-maximal inhibition (IC50) came to 60 nM.

In the case of `CCOc1cc(C(=O)N2CCC3(CC2)CC(=O)c2nn(CC)cc2O3)cc2c(C)n[nH]c12` [1.115], the IC50 was determined as 12 nM.

With `Cc1cc(C(=O)N2CCC3(CC2)CC(=O)c2nn(C(C)C)cc2O3)cc2cnsc12` [7.009], the half-inhibitory concentration (IC50) is 18 nM.

Consider `CCn1cc2c(n1)C(=O)CC1(CCN(C(=O)c3ccc4[nH]ncc4c3)CC1)O2` [1.069], for which the IC50 stood at 197 nM.

As to `CC(C)(C)n1cc2c(n1)C(=O)CC1(CCN(C(=O)c3cc(F)c4nc[nH]c4c3)CC1)O2` [3.022], the IC50 turned out to be 14 nM.

For the compound `Cc1cc(C(=O)N2CCC3(CC2)CC(=O)c2nn(C4CCC4)cc2O3)cc2c(Cl)n[nH]c12` [1.106], the IC50 was 8 nM.

Take `CCn1nc2c(c1C)OC1(CCN(C(=O)c3ccc4c(c3)N(C)C(=O)CC4)CC1)CC2=O` [12.001]: the half-inhibitory concentration (IC50) was 299 nM.

For `CCCn1cc2c(n1)C(=O)CC1(CCN(C(=O)c3ccc4[nH]nc(C)c4c3)CC1)O2` [1.082], the half-inhibitory concentration (IC50) was determined as 53 nM.

For `CCc1cc(C(=O)N2CCC3(CC2)CC(=O)c2nn(C)cc2O3)cc2cn[nH]c12` [1.059], the IC50 is 210 nM.

As to `Cc1cc(C(=O)N2CCC3(CC2)CC(=O)c2nn(C(C)(C)C)cc2O3)cc2cnsc12` [7.007], the IC50 came to 5 nM.

For orientation: IC50 means the concentration that inhibits the measured activity by half.
